Consider 3 molecules from patent EP1043331A1, “BONE-RESORPTIVE CYTOKINE INHIBITOR CONTAINING DIENOGEST AS THE ACTIVE INGREDIENT” (MOCHIDA PHARMACEUTICAL CO., LTD., priority 1997, dated 1999).

Structures are written as SMILES. Marks after values point to notes of the source that are not given here.

What all share (format): cell-based, mouse
The subject of one experiment is TNF-α. Kind of experiment: TNF-α release from murine osteoblast (culture supernatant cytokine assay). The conditions noted are these: 24 hours culture.
Another experiment relates to murine osteoclast. Briefly: Frequency of occurrence of apoptosis in murine osteoclast. Particulars: 7 days, one hundred cells with two or more nuclei observed, control 4.0. The protocol: By a method according to the report by Takahashi et al. (Endocrinology, Vol.122, pp.1373-1382, 1988), osteoclast was prepared. More specifically, a female SLC:ICR mouse of age 7 weeks was bled and killed to death, under anesthesia with pentobarbital sodium (25 mg/kg, intraperitoneal administration), and from the mouse; her femoral bone was resected. Both the ends were cut, to rinse off the […] into α-MEM (Gibco) (1 ml). […] 0.5 ml of the cell suspension was inoculated in a 24-well microtiter plate. To the wells was added 100 ng/ml parathyroid hormone (Sigma Chemical Co.) for culturing in 5 % CO2/95 % air at 37 °C for 2 days. […] Herein, three plates were used per one concentration of each drug. […] After rinsing in PBS, the apoptosis cells were detected by using an ApopTagPlus Insitu Apoptosis Detection kit peroxidase (Oncor, Gaithersburg, MD, USA) and a TSA-direct kit (GreenFISH, NEN Life Science Products, Boston, MA). Simultaneously, the smear sample was stained with a 20 µg/ml propidium iodide (Sigma Chemical Co.) solution containing 50 U/ml RNase, at room temperature for 15 minutes, to stain the nucleus. One hundred cells with two or more nuclei were observed under a cofocal laser scanning type fluorescence microscope (MRC-1000, BioRad), to determine the number of apoptosis-positive cells developed: The results are shown in Table 5.

In a further experiment the test system is IL-1β. Briefly: IL-1β release from murine osteoblast (culture supernatant cytokine assay). The conditions noted are these: 24 hours culture. The protocol: Under anesthesia with pentobarbital sodium (25 mg/kg, intraperitoneal administration), postcava was cut to bleed and kill the animal to death. Then, bilateral femoral bones were resected. This bone was cut with a pair of bone scissors, to remove the bone marrow with a micro-loop. The inner face of the bone was rubbed off with a sharp blade. The resulting matter was agitated in a 10 % collagenase solution (Nitta gelatin) at 37 °C for 20 minutes, and to the resulting mixture was added a culture medium (an MEM culture medium supplemented with 10 % charcoal-treated bovine fetal serum; manufactured by Nissui Pharmaceutical, Co. Ltd.) prior to centrifugation (300×g, 5 minutes and 20 °C). The resulting cells were dispersed in a fresh culture medium and then inoculated on a plastic culture dish (diameter of 35 mm, Primaria (Falcon)). […] Osteoblast was identified by using alkali phosphatase staining as an osteoblast marker. For recovering osteoblast from an animal after ovariectomy, ovariectomy was carried out at age 11 weeks, and the animal was fed for the following 4 weeks, prior to the same treatment.
Dienogest as a test substance was dissolved and diluted in dimethylsulfoxide (DMSO, manufactured by Wako Pure Chemical Industries, Ltd.) for use. As a control substance, furthermore, MPA and danazol were used after they were dissolved and diluted in DMSO. DMSO was used as a solvent control.
The final concentrations of the drug were 10^-11, 10^-10 and 10^-9 M. For experiments, furthermore, three dishes per each group were used.
Using SMRART ™ (Pharmacia Biotech, Uppsala, Sweden), the supernatant was concentrated by about 10 fold, after the termination of culturing. The level of cytokine in the sample was assayed by using assay kits of murine IL-1β, IL-6 and TNF-α (Cytoscreen™, BioSource International, Camarillo, Calif. CA, USA) and europium-labeled streptoavidin (Pharmacia Biotech).

A further experiment relates to cAMP. Briefly: cAMP content in murine osteoblast (time-resolved fluorometry). The conditions noted are these: Fig.1. As for the experimental part: According to the method by Johansen, et al. (Journal Bone and Mineral Research, Vol.7, pp.501-509, 1992), osteoblast was collected from the femoral bones of a female SLC : ICR mouse of age 15 weeks. Under anesthesia with pentobarbital sodium (25 mg/kg, intraperitoneal administration), postcava was cut to bleed and kill the animal to death. Then, bilateral femoral bones were resected. This bone was cut with a pair of bone scissors, to remove the bone marrow with a micro-loop. The inner face of the bone was rubbed off with a sharp blade. The resulting matter was agitated in a 10 % collagenase solution (Nitta gelatin) at 37 °C for 20 minutes, and to the resulting mixture was added a culture medium (an MEM culture medium supplemented with 10 % charcoal-treated bovine fetal serum; manufactured by Nissui Pharmaceutical, Co. Ltd.) prior to centrifugation (300×g, 5 minutes and 20 °C). The resulting cells were dispersed in a fresh culture medium and then inoculated on a plastic culture dish (diameter of 35 mm, Primaria (Falcon)). […] Osteoblast was identified by using alkali phosphatase staining as an osteoblast marker. For recovering osteoblast from an animal after ovariectomy, ovariectomy was carried out at age 11 weeks, and the animal was fed for the following 4 weeks, prior to the same treatment. 1×10^4 cells/ml osteoblast suspension (100 µl), a culture medium (890 µl) and a drug solution (10 µl) were added into each well of a plastic 24-well culture plate (Falcon), for culturing at 37 °C in 5 % CO2/95 % air for 24 hours, and then, the resulting culture was centrifuged (300 ×g, 5 minutes, 20°C) to recover the supernatant, which was defined as a cytokine assay sample. […] For experiments, furthermore, three dishes per each group were used. […] After rinsing with a DELFIA rinse solution, an enhancer reagent (100 µl) was added, for agitation at room temperature for 5 minutes, to determine the fluorescence intensity with a time-resolved fluorometer. Based on a preliminarily prepared standard curve, cAMP content was calculated.

Where [1] appears, read: osteoblast of non-treated mouse, 10^-9 M, control 23.5.
The mark [2] stands for this setting: osteoblast of non-treated mouse, 10^-10 M, control 23.5.
[3] abbreviates: osteoblast of non-treated mouse, 10^-11 M, control 23.5.
The mark [4] stands for this setting: osteoblast of ovariectomized mouse, 10^-9 M, control 45.0.
Setting [5] is: osteoblast of ovariectomized mouse, 10^-10 M, control 45.0.
[6] abbreviates: osteoblast of ovariectomized mouse, 10^-11 M, control 45.0.
Where [7] appears, read: osteoblast of non-treated mouse, 10^-9 M, control 13.9.
Setting [8] is: osteoblast of non-treated mouse, 10^-10 M, control 13.9.
Setting [9] is: osteoblast of non-treated mouse, 10^-11 M, control 13.9.
[10] abbreviates: osteoblast of ovariectomized mouse, 10^-9 M, control 26.3.
The mark [11] stands for this setting: osteoblast of ovariectomized mouse, 10^-10 M, control 26.3.
[12] abbreviates: osteoblast of ovariectomized mouse, 10^-11 M, control 26.3.
Setting [13] is: doses of 10^-11, 10^-10 and 10^-9 M.

Procedure for TNF-α: According to the method by Johansen, et al. (Journal Bone and Mineral Research, Vol.7, pp.501-509, 1992), osteoblast was collected from the femoral bones of a female SLC : ICR mouse of age 15 weeks. Under anesthesia with pentobarbital sodium (25 mg/kg, intraperitoneal administration), postcava was cut to bleed and kill the animal to death. Then, bilateral femoral bones were resected. This bone was cut with a pair of bone scissors, to remove the bone marrow with a micro-loop. The inner face of the bone was rubbed off with a sharp blade. The resulting matter was agitated in a 10 % collagenase solution (Nitta gelatin) at 37 °C for 20 minutes, and to the resulting mixture was added a culture medium (an MEM culture medium supplemented with 10 % charcoal-treated bovine fetal serum; manufactured by Nissui Pharmaceutical, Co. Ltd.) prior to centrifugation (300×g, 5 minutes and 20 °C). The resulting cells were dispersed in a fresh culture medium and then inoculated on a plastic culture dish (diameter of 35 mm, Primaria (Falcon)). At 37 °C in 5 % CO2/95% air, the cells were cultured for 24 hours, and the attached cells were recovered in a 0.25 % trypsin solution to prepare a cell suspension of 1×10^4 cells/ml. Osteoblast was identified by using alkali phosphatase staining as an osteoblast marker. For recovering osteoblast from an animal after ovariectomy, ovariectomy was carried out at age 11 weeks, and the animal was fed for the following 4 weeks, prior to the same treatment.
1×10^4 cells/ml osteoblast suspension (100 µl), a culture medium (890 µl) and a drug solution (10 µl) were added into each well of a plastic 24-well culture plate (Falcon), for culturing at 37 °C in 5 % CO2/95 % air for 24 hours, and then, the resulting culture was centrifuged (300 ×g, 5 minutes, 20°C) to recover the supernatant, which was defined as a cytokine assay sample. The final concentrations of the drug were 10^-11, 10^-10 and 10^-9 M. For experiments, furthermore, three dishes per each group were used.

With `C#C[C@]1(O)CC[C@H]2[C@@H]3CCC4=Cc5oncc5C[C@]4(C)[C@H]3CC[C@@]21C` [Danazol, danazol], the TNF-α was 26.1** pg/ml in the experiment on TNF-α (setting [1]); 24.3 pg/mL with TNF-α (setting [2]); 24.0 pg/mL in the experiment on TNF-α (setting [3]); 47.5** pg/ml in the experiment on TNF-α (setting [4]); 45.3 pg/mL in the experiment on TNF-α (setting [5]); 45.3 pg/mL in the experiment on TNF-α (setting [6]). Also, the “frequency of apoptosis occurrence in murine osteoclast (number of apoptosis-positive cells)” value (from here on “frequency of apoptosis occurrence”) in the experiment on murine osteoclast (10^-9 M) came to 3.3; in the experiment on murine osteoclast (10^-10 M) it was 3.7; in the experiment on murine osteoclast (10^-11 M), 4.0. Moreover, the IL-1β was 15.4* pg/ml in the experiment on IL-1β (setting [7]); 13.8 pg/mL with IL-1β (setting [8]); 13.6 pg/mL in the experiment with IL-1β (setting [9]); 28.1** pg/ml with IL-1β (setting [10]); 26.0 pg/mL in the experiment with IL-1β (setting [11]); 25.2 pg/mL in the experiment with IL-1β (setting [12]). Also, in the experiment on cAMP (setting [13]), the “cAMP content in murine osteoblast” value is on record as “did not affect”.
`C[C@]12CCC3=C4CCC(=O)C=C4CC[C@H]3[C@@H]1CC[C@@]2(O)CC#N` [Dienogest, 17 α-cyanomethyl-17β-hydroxy-estra-4,9(10)-dien-3-one]: the TNF-α is 14.8** pg/ml in the experiment on TNF-α (setting [1]); 24.4 pg/mL in the experiment on TNF-α (setting [2]); 24.7 pg/mL with TNF-α (setting [3]); 22.3** pg/ml in the experiment on TNF-α (setting [4]); 29.8** pg/ml in the experiment with TNF-α (setting [5]); 44.4 pg/mL in the experiment on TNF-α (setting [6]). Further, the “frequency of apoptosis occurrence” value with murine osteoclast (10^-9 M) is listed as 16.3**; in the experiment on murine osteoclast (10^-10 M), 5.0; in the experiment with murine osteoclast (10^-11 M), 3.7. The IL-1β is 12.0** pg/ml in the experiment with IL-1β (setting [7]); 13.7 pg/mL in the experiment with IL-1β (setting [8]); 14.4 pg/mL with IL-1β (setting [9]); 23.1** pg/ml in the experiment on IL-1β (setting [10]); 23.8* pg/ml in the experiment with IL-1β (setting [11]); 26.1 pg/mL in the experiment with IL-1β (setting [12]). The “cAMP content in murine osteoblast” value with cAMP (at a concentration of 10^-9 M or more) was “significantly increased”.
For the molecule `CC(=O)O[C@]1(C(C)=O)CC[C@H]2[C@@H]3C[C@H](C)C4=CC(=O)CC[C@]4(C)[C@H]3CC[C@@]21C` [MPA, medroxyprogesterone acetate], the TNF-α with TNF-α (setting [1]) was 31.4** pg/ml; with TNF-α (setting [2]), 25.3 pg/mL; in the experiment on TNF-α (setting [3]), 25.5 pg/mL; in the experiment with TNF-α (setting [4]), 47.6* pg/ml; in the experiment on TNF-α (setting [5]), 46.1 pg/mL; in the experiment with TNF-α (setting [6]), 44.6 pg/mL. The “frequency of apoptosis occurrence” value with murine osteoclast (10^-9 M) came out at 5.0; in the experiment with murine osteoclast (10^-10 M), 3.7; with murine osteoclast (10^-11 M) it was 4.0. Also, the IL-1β in the experiment with IL-1β (setting [7]) is 16.9* pg/ml; in the experiment on IL-1β (setting [8]), 14.4 pg/mL; with IL-1β (setting [9]), 13.3 pg/mL; in the experiment on IL-1β (setting [10]), 30.2** pg/ml; with IL-1β (setting [11]), 25.9 pg/mL; with IL-1β (setting [12]), 26.3 pg/mL. For the same molecule, the “cAMP content in murine osteoblast” value in the experiment on cAMP (setting [13]) is given as “did not affect”.
